In PubChem BioAssay (NCI):
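Step 1: Grow cells in 96-well plates. Step 2: Expose to compound for 48 hours at 5 concentrations. Step 3: Interpolate endpoints linearly; if unreached, use highest concentration. TGI is the concentration that stops growth completely.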

Tests used:
Assay in all cases: DTP human tumour cell line panel, 48 h
[1] = test system: SNB-19 CNS
[2] = test system: DU-145 prostate
[3] = test system: CCRF-CEM leukemia
[4] = test system: COLO 205 colon
[5] = test system: HOP-92 NSCLC
[6] = test system: HOP-62 NSCLC
[7] = test system: SK-MEL-28 melanoma
[8] = test system: SK-OV-3 ovarian
[9] = test system: OVCAR-8 ovarian
[10] = test system: NCI-H23 lung
[11] = test system: NCI-H460 lung
[12] = test system: SW-620 colon
[13] = test system: OVCAR-4 ovarian
[14] = test system: HCT-15 colon
[15] = test system: MCF7 breast
[16] = test system: IGROV1 ovarian
[17] = test system: U251 CNS
[18] = test system: CAKI-1 renal
[19] = test system: LOX IMVI melanoma
[20] = test system: A498 renal

SMILES	TGI [1]	TGI [2]	TGI [3]	TGI [4]	TGI [5]	TGI [6]	TGI [7]	TGI [8]	TGI [9]	TGI [10]	TGI [11]	TGI [12]	TGI [13]	TGI [14]	TGI [15]	TGI [16]	TGI [17]	TGI [18]	TGI [19]	TGI [20]
CCn1c(-c2ccc(F)cc2)nc2c1C(=O)c1ccccc1C2=O	> 100 µM	> 100 µM	> 100 µM	> 100 µM	> 100 µM	> 100 µM	> 100 µM	> 100 µM	> 100 µM	> 100 µM	> 100 µM	> 100 µM	> 100 µM	> 100 µM	> 100 µM	> 100 µM	> 100 µM			
O=C(O)c1ccccc1CC1Cc2ccc3c(c2C1=O)CCC3 (stereo not drawn)	> 100 µM	> 100 µM	> 100 µM	> 100 µM	> 100 µM	> 100 µM	> 100 µM	> 100 µM	> 100 µM	> 100 µM	> 100 µM	> 100 µM	> 100 µM	> 100 µM	> 100 µM	> 100 µM	> 100 µM	> 100 µM	> 100 µM	
CCOC(=O)C(NCc1ccc2c(c1)OCO2)(NC(=O)c1ccccc1)C(F)(F)F (stereo not drawn)	> 100 µM	> 100 µM	67.8 µM	> 100 µM	> 100 µM	> 100 µM	> 100 µM	> 100 µM	> 100 µM	> 100 µM		> 100 µM	> 100 µM	> 100 µM	> 100 µM	> 100 µM	> 100 µM	> 100 µM	> 100 µM	
O=P1(c2ccccc2)c2ccccc2CCc2ccccc21	> 100 µM	> 100 µM	> 100 µM	> 100 µM	> 100 µM	> 100 µM	> 100 µM	> 100 µM	> 100 µM	> 100 µM		> 100 µM		> 100 µM	> 100 µM	> 100 µM		> 100 µM	> 100 µM	
NCCCCN(CCCN)C(=O)c1ccccc1	> 100 µM	> 100 µM	> 100 µM	> 100 µM	> 100 µM	> 100 µM	> 100 µM	> 100 µM	> 100 µM	> 100 µM	> 100 µM	> 100 µM	> 100 µM	> 100 µM	> 100 µM	> 100 µM	> 100 µM	> 100 µM		> 100 µM
C=C1CCCCCCCCCCC12SCCC2CCCCSC (stereo not drawn)	52.2 µM	> 100 µM		33.6 µM	62.5 µM	40.9 µM	57.8 µM	> 100 µM	56.4 µM	56.9 µM	> 100 µM	68.9 µM	> 100 µM	73.4 µM	39.3 µM	49.9 µM	33.8 µM		34.2 µM	35.8 µM
C=CCCCC1SC2=C(CC)CCCN2C1=O (stereo not drawn)	> 100 µM	> 100 µM		> 100 µM	> 100 µM	> 100 µM	> 100 µM	> 100 µM	> 100 µM	> 100 µM		> 100 µM	> 100 µM	> 100 µM	> 100 µM	> 100 µM	> 100 µM	> 100 µM	> 100 µM	> 100 µM
CCCCCC[C@H]1CC(=O)C2CCCC[C@@]23CC[C@H](CCl)N13 (stereo partly drawn) (tested in a mixture with another compound)	> 100 µM	> 100 µM	90.5 µM		79.6 µM	> 100 µM	> 100 µM	> 100 µM	64.6 µM	> 100 µM	> 100 µM		> 100 µM	> 100 µM	96.9 µM	> 100 µM	> 100 µM	> 100 µM		> 100 µM
O=C(O)c1cc2cc(c1)N=Cc1ccccc1OCc1cccc(n1)COc1ccccc1C=N2	> 25 µM	> 25 µM	> 25 µM	> 25 µM	> 25 µM	> 25 µM	> 25 µM	> 25 µM	> 25 µM	> 25 µM	> 25 µM	> 25 µM	> 25 µM	> 25 µM	> 25 µM	> 25 µM	> 25 µM			> 25 µM
CC(=O)OC(C)c1cc2c(s1)C(=O)c1scc(C(C)OC(C)=O)c1C2=O (stereo not drawn)	0.454 µM	0.317 µM		1 µM	4.58 µM	0.44 µM	0.378 µM	4.33 µM	0.546 µM	0.398 µM	0.344 µM		0.583 µM	0.381 µM	0.605 µM	2.04 µM	1.66 µM	5.04 µM	> 100 µM	1.26 µM
Nc1c(-c2nc3ccccc3o2)sc(=S)n1-c1ccc(Cl)cc1	39.5 µM	32.9 µM	> 100 µM	> 100 µM	63.3 µM	15.8 µM	37.7 µM	33.2 µM	30.2 µM	37.8 µM	> 100 µM		31.6 µM	> 100 µM	> 100 µM	46.3 µM	37.5 µM	53.4 µM		99.7 µM
O=C(CC(C(=O)c1ccco1)c1cccs1)c1cccs1 (stereo not drawn)	> 100 µM	> 100 µM		> 100 µM	> 100 µM	> 100 µM	> 100 µM	> 100 µM	> 100 µM	> 100 µM	> 100 µM	> 100 µM	> 100 µM	> 100 µM	> 100 µM	> 100 µM	> 100 µM	> 100 µM	> 100 µM	> 100 µM
c1ccc(C2SCc3nc4cc5ccccc5cc4n32)cc1 (stereo not drawn)	> 100 µM	> 100 µM	> 100 µM	> 100 µM	> 100 µM	> 100 µM	> 100 µM	> 100 µM	> 100 µM	> 100 µM		> 100 µM	> 100 µM	> 100 µM	> 100 µM	> 100 µM	> 100 µM	> 100 µM	> 100 µM	
